{"source": "patent US10392391B2", "about": "(Vertex Pharmaceuticals Incorporated, priority 2012, dated 2019)", "note": "pKi: −log10 of the molar value."}
{"molecular_target": "ATR kinase (full-length ATR) (Homo sapiens (Human), UniProt Q13535)", "sequence (Q13535 whole entry)": "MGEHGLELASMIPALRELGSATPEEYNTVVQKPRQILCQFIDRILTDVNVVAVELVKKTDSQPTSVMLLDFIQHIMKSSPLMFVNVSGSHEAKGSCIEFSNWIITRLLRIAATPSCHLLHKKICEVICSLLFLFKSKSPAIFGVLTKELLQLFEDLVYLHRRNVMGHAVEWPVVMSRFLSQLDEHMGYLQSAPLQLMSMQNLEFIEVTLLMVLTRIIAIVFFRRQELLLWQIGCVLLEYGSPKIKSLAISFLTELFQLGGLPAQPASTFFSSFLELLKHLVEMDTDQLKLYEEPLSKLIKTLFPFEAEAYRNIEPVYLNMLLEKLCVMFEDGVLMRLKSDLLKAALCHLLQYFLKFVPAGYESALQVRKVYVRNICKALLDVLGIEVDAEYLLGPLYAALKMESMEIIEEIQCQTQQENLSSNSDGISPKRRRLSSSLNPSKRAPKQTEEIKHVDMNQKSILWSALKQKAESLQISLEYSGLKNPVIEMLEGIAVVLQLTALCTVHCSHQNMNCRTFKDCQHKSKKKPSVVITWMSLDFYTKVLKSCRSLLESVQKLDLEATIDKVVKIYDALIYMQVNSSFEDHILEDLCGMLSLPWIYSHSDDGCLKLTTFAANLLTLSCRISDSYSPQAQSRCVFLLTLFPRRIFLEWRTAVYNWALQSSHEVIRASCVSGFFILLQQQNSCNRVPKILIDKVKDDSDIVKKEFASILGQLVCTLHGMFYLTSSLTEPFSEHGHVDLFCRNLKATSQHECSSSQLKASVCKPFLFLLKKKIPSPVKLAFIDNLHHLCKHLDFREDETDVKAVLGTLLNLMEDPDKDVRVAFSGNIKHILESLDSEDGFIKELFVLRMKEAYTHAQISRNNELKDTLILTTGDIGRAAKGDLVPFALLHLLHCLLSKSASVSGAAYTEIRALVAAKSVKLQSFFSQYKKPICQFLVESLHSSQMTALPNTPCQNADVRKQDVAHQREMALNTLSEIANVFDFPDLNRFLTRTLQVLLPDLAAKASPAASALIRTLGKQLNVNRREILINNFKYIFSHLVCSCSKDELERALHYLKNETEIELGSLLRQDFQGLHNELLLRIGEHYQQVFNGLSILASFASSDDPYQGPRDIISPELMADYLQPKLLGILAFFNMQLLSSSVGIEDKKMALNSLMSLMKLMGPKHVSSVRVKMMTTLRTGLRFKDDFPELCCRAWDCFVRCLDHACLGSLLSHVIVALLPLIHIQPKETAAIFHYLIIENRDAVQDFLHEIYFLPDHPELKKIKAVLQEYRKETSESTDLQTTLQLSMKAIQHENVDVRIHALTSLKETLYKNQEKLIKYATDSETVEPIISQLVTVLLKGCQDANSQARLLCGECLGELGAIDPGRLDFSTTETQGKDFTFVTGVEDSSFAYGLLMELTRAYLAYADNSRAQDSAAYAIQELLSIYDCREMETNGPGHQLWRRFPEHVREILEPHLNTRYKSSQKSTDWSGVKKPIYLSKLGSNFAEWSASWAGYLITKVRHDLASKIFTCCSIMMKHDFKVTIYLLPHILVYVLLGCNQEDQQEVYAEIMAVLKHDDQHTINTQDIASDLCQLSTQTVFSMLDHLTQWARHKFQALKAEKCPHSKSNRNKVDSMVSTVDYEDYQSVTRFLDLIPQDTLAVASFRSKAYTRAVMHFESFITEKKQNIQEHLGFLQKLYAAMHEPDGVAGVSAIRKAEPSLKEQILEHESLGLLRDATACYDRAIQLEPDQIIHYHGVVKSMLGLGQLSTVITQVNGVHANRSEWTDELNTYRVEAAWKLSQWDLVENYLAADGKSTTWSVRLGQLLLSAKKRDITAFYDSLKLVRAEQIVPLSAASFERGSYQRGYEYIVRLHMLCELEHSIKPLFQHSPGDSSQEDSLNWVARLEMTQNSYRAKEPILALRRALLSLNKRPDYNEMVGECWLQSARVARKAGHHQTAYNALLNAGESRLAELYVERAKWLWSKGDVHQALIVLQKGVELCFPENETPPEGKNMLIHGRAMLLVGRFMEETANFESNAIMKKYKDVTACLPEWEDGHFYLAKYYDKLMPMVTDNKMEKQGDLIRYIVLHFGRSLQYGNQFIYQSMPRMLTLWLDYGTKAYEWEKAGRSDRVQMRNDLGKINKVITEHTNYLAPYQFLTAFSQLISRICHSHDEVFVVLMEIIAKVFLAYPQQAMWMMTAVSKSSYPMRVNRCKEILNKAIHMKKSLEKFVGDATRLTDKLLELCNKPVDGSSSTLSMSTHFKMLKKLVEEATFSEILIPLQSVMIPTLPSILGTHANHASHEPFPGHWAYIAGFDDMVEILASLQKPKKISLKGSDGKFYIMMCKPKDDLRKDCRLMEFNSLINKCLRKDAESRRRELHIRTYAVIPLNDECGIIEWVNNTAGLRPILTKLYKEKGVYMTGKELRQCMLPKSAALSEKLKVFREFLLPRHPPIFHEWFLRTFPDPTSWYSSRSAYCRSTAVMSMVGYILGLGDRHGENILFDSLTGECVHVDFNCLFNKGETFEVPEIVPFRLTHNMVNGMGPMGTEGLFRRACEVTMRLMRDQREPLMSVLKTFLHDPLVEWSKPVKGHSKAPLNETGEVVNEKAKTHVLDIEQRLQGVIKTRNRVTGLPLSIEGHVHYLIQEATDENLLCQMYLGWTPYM", "assay": "ATR inhibition assay (radioactive-phosphate incorporation)", "format": "biochemical", "conditions": "not given", "method_in_brief": "(§1)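 Radiometric 33P incorporation by 5 nM full-length ATR into 800 μM target peptide with 10 μM [γ-33P]ATP, in 50 mM Tris/HCl pH 7.5, 10 mM MgCl2, 1 mM DTT, 7% DMSO, 25° C. Compound pre-incubated 10 minutes; reaction stopped after 24 hours, captured on phosphocellulose. Ki(app) from non-linear regression of initial rates.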"}
{"smiles": "CN1CCC(c2c(F)cncc2NC(=O)c2c(N)nn3cc(F)cnc23)CC1", "note": "[I-C-14, 2-amino-6-fluoro-N-(5-fluoro-4-(1-methylpiperidin-4-yl)pyridin-3-yl)pyrazolo[1,5-a]pyrimidine-3-carboxamide]", "pKi": "5.30 to 6.00"}
{"smiles": "Nc1nn2cc(F)cnc2c1C(=O)Nc1cnccc1CN1CCCC1=O", "note": "[I-C-76, 2-amino-6-fluoro-N-(4-((2-oxopyrrolidin-1-yl)methyl)pyridin-3-yl)pyrazolo[1,5-a]pyrimidine-3-carboxamide]", "pKi": "5.30 to 6.00"}
{"smiles": "CC(C)(C#N)c1cnc2c(C(=O)Nc3cncc(F)c3N3CCN(C4COC4)CC3)c(N)nn2c1", "note": "[I-N-144]", "pKi": "5.30 to 6.00"}
{"molecular_target": "ATR kinase (full-length ATR) (Homo sapiens (Human), UniProt Q13535)", "assay": "ATR inhibition assay (radioactive-phosphate incorporation)", "format": "biochemical", "conditions": "Ki(app), 5 nM full-length ATR, 10 μM ATP, 25° C.", "method_in_brief": "as §1"}
{"smiles": "Nc1nn2cc(F)cnc2c1C(=O)Nc1cnccc1N1CCC(C(=O)N2CCCC2)CC1", "note": "[I-G-83, 2-amino-6-fluoro-N-(4-(4-(pyrrolidine-1-carbonyl)piperidin-1-yl)pyridin-3-yl)pyrazolo[1,5-a]pyrimidine-3-carboxamide]", "pKi": "6.00 to 8.00"}
{"smiles": "N#CCc1cnc2c(C(=O)Nc3cnccc3OCC(F)(F)F)c(N)nn2c1", "note": "[I-O-34, 2-amino-6-(cyanomethyl)-N-(4-(2,2,2-trifluoroethoxy)pyridin-3-yl)pyrazolo[1,5-a]pyrimidine-3-carboxamide]", "pKi": "> 8.00"}
{"smiles": "CC(C)(C)NC(=O)C1CCN(c2c(F)cncc2NC(=O)c2c(N)nn3cc(F)cnc23)CC1", "note": "[I-G-19, 2-amino-N-(4-(4-(tert-butylcarbamoyl)piperidin-1-yl)-5-fluoropyridin-3-yl)-6-fluoropyrazolo[1,5-a]pyrimidine-3-carboxamide]", "pKi": "6.00 to 8.00"}
{"smiles": "COCCN(C)C(=O)C1CCN(c2c(F)cncc2NC(=O)c2c(N)nn3cc(F)cnc23)CC1", "note": "[I-G-40, 2-amino-6-fluoro-N-(5-fluoro-4-(4-((2-methoxyethyl)(methyl)carbamoyl)piperidin-1-yl)pyridin-3-yl)pyrazolo[1,5-a]pyrimidine-3-carboxamide]", "pKi": "6.00 to 8.00"}
{"smiles": "CN1CCOC2(CCN(c3ccncc3NC(=O)c3c(N)nn4cc(F)cnc34)CC2)C1", "note": "[I-N-183, 2-amino-6-fluoro-N-(4-(4-methyl-1-oxa-4,9-diazaspiro[5.5]undecan-9-yl)pyridin-3-yl)pyrazolo[1,5-a]pyrimidine-3-carboxamide]", "pKi": "6.00 to 8.00"}
{"smiles": "CN(C)C1CCN(C2CCN(c3ccncc3NC(=O)c3c(N)nn4cc(Cl)cnc34)CC2)C1", "note": "(stereo not shown) [I-N-106, 2-amino-6-chloro-N-(4-(4-(3-(dimethylamino)pyrrolidin-1-yl)piperidin-1-yl)pyridin-3-yl)pyrazolo[1,5-a]pyrimidine-3-carboxamide]", "pKi": "6.00 to 8.00"}
{"smiles": "CN(C)CC1CCN(c2ccncc2NC(=O)c2c(N)nn3cc(Cl)cnc23)CC1", "note": "[I-N-45, 2-amino-6-chloro-N-(4-(4-((dimethylamino)methyl)piperidin-1-yl)pyridin-3-yl)pyrazolo[1,5-a]pyrimidine-3-carboxamide]", "pKi": "6.00 to 8.00"}
{"smiles": "CS(=O)(=O)C1CN(C(=O)C2CCN(c3ccncc3NC(=O)c3c(N)nn4cc(F)cnc34)CC2)C1", "note": "[I-G-89, 2-amino-6-fluoro-N-(4-(4-(3-(methylsulfonyl)azetidine-1-carbonyl)piperidin-1-yl)pyridin-3-yl)pyrazolo[1,5-a]pyrimidine-3-carboxamide]", "pKi": "6.00 to 8.00"}
{"smiles": "Nc1nn2cc(F)cnc2c1C(=O)Nc1cnccc1N1CCS(=O)(=O)CC1", "note": "[I-N-210, 2-amino-N-(4-(1,1-dioxidothiomorpholino)pyridin-3-yl)-6-fluoropyrazolo[1,5-a]pyrimidine-3-carboxamide]", "pKi": "6.00 to 8.00"}
{"smiles": "Nc1nn2cc(Cl)cnc2c1C(=O)Nc1cnccc1N1CCC(N2CC[S+]([O-])CC2)CC1", "note": "[I-N-100, 2-amino-6-chloro-N-(4-(4-(1-oxidothiomorpholino)piperidin-1-yl)pyridin-3-yl)pyrazolo[1,5-a]pyrimidine-3-carboxamide]", "pKi": "6.00 to 8.00"}
{"smiles": "Nc1nn2cc(F)cnc2c1C(=O)Nc1cncc(F)c1N1CCC2(CC1)COC2", "note": "[I-N-239, 2-amino-6-fluoro-N-(5-fluoro-4-(2-oxa-7-azaspiro[3.5]nonan-7-yl)pyridin-3-yl)pyrazolo[1,5-a]pyrimidine-3-carboxamide]", "pKi": "6.00 to 8.00"}
{"smiles": "CN1CCC(C(=O)N2CC=C(c3c(F)cncc3NC(=O)c3c(N)nn4cc(F)cnc34)CC2)CC1", "note": "[I-C-38, 2-amino-6-fluoro-N-(5-fluoro-1′-(1-methylpiperidine-4-carbonyl)-1′,2′,3′,6′-tetrahydro-[4,4′-bipyridin]-3-yl)pyrazolo[1,5-a]pyrimidine-3-carboxamide]", "pKi": "6.00 to 8.00"}
{"smiles": "CN1CCC(N(C)S(=O)(=O)C2CCN(c3c(F)cncc3NC(=O)c3c(N)nn4cc(F)cnc34)CC2)CC1", "note": "[I-N-148, 2-amino-6-fluoro-N-(5-fluoro-4-(4-(N-methyl-N-(1-methylpiperidin-4-yl)sulfamoyl)piperidin-1-yl)pyridin-3-yl)pyrazolo[1,5-a]pyrimidine-3-carboxamide]", "pKi": "6.00 to 8.00"}
{"smiles": "CC(C)N1CCN(c2ccncc2NC(=O)c2c(N)nn3cc(F)cnc23)CC1", "note": "[I-N-4, 2-amino-6-fluoro-N-(4-(4-isopropylpiperazin-1-yl)pyridin-3-yl)pyrazolo[1,5-a]pyrimidine-3-carboxamide]", "pKi": "6.00 to 8.00"}
{"smiles": "N#CCc1cnc2c(C(=O)Nc3cnccc3OC3CNC3)c(N)nn2c1", "note": "[I-O-82, 2-amino-N-(4-(azetidin-3-yloxy)pyridin-3-yl)-6-(cyanomethyl)pyrazolo[1,5-a]pyrimidine-3-carboxamide]", "pKi": "> 8.00"}
{"smiles": "CN1CCN(c2ccncc2NC(=O)c2c(N)nn3cc(Cl)cnc23)CC1", "note": "[I-N-59, 2-amino-6-chloro-N-(4-(4-methylpiperazin-1-yl)pyridin-3-yl)pyrazolo[1,5-a]pyrimidine-3-carboxamide]", "pKi": "6.00 to 8.00"}
{"smiles": "Nc1nn2cc(Cl)cnc2c1C(=O)Nc1cnccc1N1C2CCC1CC(O)C2", "note": "(stereo not shown) [I-N-42, 2-amino-6-chloro-N-(4-(3-hydroxy-8-azabicyclo[3.2.1]octan-8-yl)pyridin-3-yl)pyrazolo[1,5-a]pyrimidine-3-carboxamide]", "pKi": "6.00 to 8.00"}
{"smiles": "Nc1nn2cc(F)cnc2c1C(=O)Nc1cnccc1N1CCN2CCOC[C@@H]2C1", "note": "[I-N-115, (S)-2-amino-6-fluoro-N-(4-(hexahydropyrazino[2,1-c][1,4]oxazin-8(1H)-yl)pyridin-3-yl)pyrazolo[1,5-a]pyrimidine-3-carboxamide]", "pKi": "6.00 to 8.00"}
{"smiles": "Cc1nc(C(F)(F)F)cn1-c1ccncc1NC(=O)c1c(N)nn2cc(F)cnc12", "note": "[I-N-30, 2-amino-6-fluoro-N-(4-(2-methyl-4-(trifluoromethyl)-1H-imidazol-1-yl)pyridin-3-yl)pyrazolo[1,5-a]pyrimidine-3-carboxamide]", "pKi": "6.00 to 8.00"}
{"smiles": "C[C@H]1CN(C(=O)C2CCN(c3c(F)cncc3NC(=O)c3c(N)nn4cc(F)cnc34)CC2)CCN1C", "note": "[I-G-47, (S)-2-amino-N-(4-(4-(3,4-dimethylpiperazine-1-carbonyl)piperidin-1-yl)-5-fluoropyridin-3-yl)-6-fluoropyrazolo[1,5-a]pyrimidine-3-carboxamide]", "pKi": "6.00 to 8.00"}
{"smiles": "COc1ccc(-c2ccncc2NC(=O)c2c(N)nn3cc(F)cnc23)cn1", "note": "[I-C-27, 2-amino-6-fluoro-N-(6-methoxy-[3,4′-bipyridin]-3′-yl)pyrazolo[1,5-a]pyrimidine-3-carboxamide]", "pKi": "6.00 to 8.00"}
{"smiles": "CN1CC2(CCN(c3ccncc3NC(=O)c3c(N)nn4cc(F)cnc34)CC2)OC1=O", "note": "[I-N-216, 2-amino-6-fluoro-N-(4-(3-methyl-2-oxo-1-oxa-3,8-diazaspiro[4.5]decan-8-yl)pyridin-3-yl)pyrazolo[1,5-a]pyrimidine-3-carboxamide]", "pKi": "6.00 to 8.00"}
{"smiles": "Nc1nn2cc(F)cnc2c1C(=O)Nc1cncc(F)c1N1CCC(C(=O)NC2COC2)CC1", "note": "[I-G-37, 2-amino-6-fluoro-N-(5-fluoro-4-(4-(oxetan-3-ylcarbamoyl)piperidin-1-yl)pyridin-3-yl)pyrazolo[1,5-a]pyrimidine-3-carboxamide]", "pKi": "6.00 to 8.00"}
{"smiles": "CC(C)Oc1ccncc1NC(=O)c1c(N)nn2cc(CC#N)cnc12", "note": "[I-O-35, 2-amino-6-(cyanomethyl)-N-(4-isopropoxypyridin-3-yl)pyrazolo[1,5-a]pyrimidine-3-carboxamide]", "pKi": "> 8.00"}
{"smiles": "CCOc1ccncc1NC(=O)c1c(N)nn2cc(CC#N)cnc12", "note": "[I-O-28, 2-amino-6-(cyanomethyl)-N-(4-ethoxypyridin-3-yl)pyrazolo[1,5-a]pyrimidine-3-carboxamide]", "pKi": "> 8.00"}
{"smiles": "CN1CCOCC1C(=O)N1CCN(c2c(F)cncc2NC(=O)c2c(N)nn3cc(F)cnc23)CC1", "note": "(stereo not shown) [I-N-227, 2-amino-6-fluoro-N-(5-fluoro-4-(4-(4-methylmorpholine-3-carbonyl)piperazin-1-yl)pyridin-3-yl)pyrazolo[1,5-a]pyrimidine-3-carboxamide]", "pKi": "6.00 to 8.00"}
{"smiles": "Cc1ncn(-c2ccncc2NC(=O)c2c(N)nn3cc(F)cnc23)n1", "note": "[I-N-161, 2-amino-6-fluoro-N-(4-(3-methyl-1H-1,2,4-triazol-1-yl)pyridin-3-yl)pyrazolo[1,5-a]pyrimidine-3-carboxamide]", "pKi": "6.00 to 8.00"}
{"smiles": "CCOc1ccncc1NC(=O)c1c(N)nn2cc(F)cnc12", "note": "[I-O-14, 2-amino-N-(4-ethoxypyridin-3-yl)-6-fluoropyrazolo[1,5-a]pyrimidine-3-carboxamide]", "pKi": "6.00 to 8.00"}
{"smiles": "Nc1nn2cc(F)cnc2c1C(=O)Nc1cnccc1N1CCN(C2CC2)CC1", "note": "[I-N-33, 2-amino-N-(4-(4-cyclopropylpiperazin-1-yl)pyridin-3-yl)-6-fluoropyrazolo[1,5-a]pyrimidine-3-carboxamide]", "pKi": "6.00 to 8.00"}
{"smiles": "Nc1nn2cc(Cl)cnc2c1C(=O)Nc1cnccc1N1CCC(N2CCn3cncc3C2)CC1", "note": "[I-N-101, 2-amino-6-chloro-N-(4-(4-(5,6-dihydroimidazo[1,5-a]pyrazin-7(81-1)-yl)piperidin-1-yl)pyridin-3-yl)pyrazolo[1,5-a]pyrimidine-3-carboxamide]", "pKi": "6.00 to 8.00"}
{"smiles": "Nc1nn2cc(F)cnc2c1C(=O)Nc1cnccc1-c1ccccn1", "note": "[I-C-60, N-([2,4′-bipyridin]-3′-yl)-2-amino-6-fluoropyrazolo[1,5-a]pyrimidine-3-carboxamide]", "pKi": "6.00 to 8.00"}
